Structures can show the parent of a compound that is named as a salt.

For 25 compounds, IC50 results are on record in patent US20200361895A1, “NOVEL SULFONAMIDE CARBOXAMIDE COMPOUNDS” (Inflazome Limited, priority 2017, published 2020).

Assay [1] addresses T1, NLRP3 (Homo sapiens, UniProt Q96P20). As to the kind of experiment: THP-1 cells pyroptosis assay (LPS + nigericin, resazurin readout; THP IC50). The arrangement: Seed THP-1 cells (25,000 cells/well) containing 1.0 μg/ml LPS in 40 μl of RPMI medium; host or cells: THP-1 cells. In kind it is cell-based. In a few lines: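 IC50 from 4-parameter fit of resazurin fluorescence (100 μM, 1-2 hrs), reflecting surviving cells after pyroptosis. LPS-primed (1 μg/ml) THP-1 cells in FBS-free RPMI got compound for 3 hrs at 37° C (top 10 μM, half-log, 8 points), then nigericin 5 μM for 1 hr.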

The target of assay [2] is T1, NLRP3. As to the kind of experiment: Human whole blood IL1β release assay (LPS + nigericin, AlphaLisa IL-1β; HWB IC50). In kind it is cell-based. Further details: Human whole blood in Li-heparin tubes was obtained from healthy donors from a volunteer donor panel; from tissue; host or cells: human whole blood from healthy donors. The following applies: IL-1β release. The essentials: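 IL-1β in plasma supernatant quantified by AlphaLisa after nigericin (10 μM final, 1 h, 37 °C) triggering of human whole blood that had been preincubated 3 h with LPS (1 μg/ml) plus compound (half-log, 8 points, from 10 μM). IC50 by variable-slope four-parameter regression.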

T1 sequence (Q96P20 whole entry): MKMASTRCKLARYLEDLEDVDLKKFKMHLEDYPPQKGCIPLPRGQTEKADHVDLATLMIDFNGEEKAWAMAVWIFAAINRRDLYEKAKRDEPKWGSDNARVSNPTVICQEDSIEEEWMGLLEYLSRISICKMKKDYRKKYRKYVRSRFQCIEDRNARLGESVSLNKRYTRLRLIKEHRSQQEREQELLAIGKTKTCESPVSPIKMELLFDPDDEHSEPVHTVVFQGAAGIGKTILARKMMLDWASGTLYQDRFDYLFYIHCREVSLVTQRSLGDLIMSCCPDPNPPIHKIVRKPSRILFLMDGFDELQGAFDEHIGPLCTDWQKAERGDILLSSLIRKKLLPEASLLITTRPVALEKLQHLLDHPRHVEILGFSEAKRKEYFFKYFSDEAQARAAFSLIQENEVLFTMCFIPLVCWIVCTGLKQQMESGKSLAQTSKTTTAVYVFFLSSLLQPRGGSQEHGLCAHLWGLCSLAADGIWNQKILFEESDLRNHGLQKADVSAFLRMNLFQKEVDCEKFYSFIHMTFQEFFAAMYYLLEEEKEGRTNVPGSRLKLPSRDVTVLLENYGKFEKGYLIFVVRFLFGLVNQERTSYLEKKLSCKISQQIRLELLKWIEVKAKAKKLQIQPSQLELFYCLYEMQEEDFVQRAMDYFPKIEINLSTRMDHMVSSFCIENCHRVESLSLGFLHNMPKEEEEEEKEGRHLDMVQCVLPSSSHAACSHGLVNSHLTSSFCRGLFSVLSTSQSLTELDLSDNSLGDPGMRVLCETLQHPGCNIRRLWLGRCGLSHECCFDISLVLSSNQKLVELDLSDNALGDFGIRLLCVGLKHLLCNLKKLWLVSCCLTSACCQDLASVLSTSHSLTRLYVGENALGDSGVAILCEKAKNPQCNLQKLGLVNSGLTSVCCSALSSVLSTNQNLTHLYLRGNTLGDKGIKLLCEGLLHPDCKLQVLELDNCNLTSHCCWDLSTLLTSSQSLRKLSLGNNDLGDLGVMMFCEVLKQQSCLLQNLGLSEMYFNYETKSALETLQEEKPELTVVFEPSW

With `CN(C)c1cncc(S(=O)(=O)NC(=O)Nc2c(-c3ccncc3)cc(F)c3c2CCC3)n1` [Example 105, 6-(Dimethylamino)-N-((7-fluoro-5-(pyridin-4-yl)-2,3-dihydro-1H-inden-4-yl)carbamoyl)pyrazine-2-sulfonamide], the half-inhibitory concentration (IC50) was at most 500 nM on NLRP3 [1] and at most 1000 nM at NLRP3 [2].
The corresponding values for `COc1cc(-c2ccc3c(c2NC(=O)NS(=O)(=O)c2ccn(C(C)(C)CN4CC(OC)C4)n2)CCC3)ccn1` [Example 180, 1-(1-(3-Methoxyazetidin-1-yl)-2-methylpropan-2-yl)-N-((5-(2-methoxypyridin-4-yl)-2,3-dihydro-1H-inden-4-yl)carbamoyl)-1H-pyrazole-3-sulfonamide] are at most 500 nM and at most 500 nM.
The corresponding values for `N#Cc1cc(-c2ccc3c(c2NC(=O)NS(=O)(=O)c2ccn(CC4CC4)n2)CCC3)ccn1` [Example 271, N-((5-(2-Cyanopyridin-4-yl)-2,3-dihydro-1H-inden-4-yl)carbamoyl)-1-(cyclopropylmethyl)-1H-pyrazole-3-sulfonamide] are at most 500 nM and at most 500 nM.
The matching figures for `CNCC(C)(C)n1ccc(S(=O)(=O)NC(=O)Nc2c(-c3ccnc(OC)c3)ccc3c2CCC3)n1` [Example 197, N-((5-(2-Methoxypyridin-4-yl)-2,3-dihydro-1H-inden-4-yl)carbamoyl)-1-(2-methyl-1-(methylamino)propan-2-yl)-1H-pyrazole-3-sulfonamide, sodium salt]: at most 500 nM and at most 500 nM.
For `Cc1cc(-c2ccc3c(c2NC(=O)NS(=O)(=O)c2ccn(C(C)C)n2)CCC3)ccn1` [Example 245, 1-Isopropyl-N-((5-(2-methylpyridin-4-yl)-2,3-dihydro-1H-inden-4-yl)carbamoyl)-1H-pyrazole-3-sulfonamide, sodium salt], the IC50 on NLRP3 [1] and on NLRP3 [2] was at most 500 nM in each case.
With `CC(C)c1cc(F)cc(-c2ccnc(C#N)c2)c1NC(=O)NS(=O)(=O)c1cc(N(C)C)cnn1` [Example 118, N-((2-(2-Cyanopyridin-4-yl)-4-fluoro-6-isopropylphenyl)carbamoyl)-5-(dimethylamino)pyridazine-3-sulfonamide], the 50% inhibitory concentration (IC50) on NLRP3 [1] is at most 500 nM; at NLRP3 [2] it was at most 1000 nM.
The corresponding values for `CCC(c1cc(S(=O)(=O)NC(=O)Nc2c(-c3ccnc(OC)c3)ccc3c2CCC3)nn1C(C)C)N(C)C` (centres unmarked) [Example 192, 5-(1-(Dimethylamino)propyl)-1-isopropyl-N-((5-(2-methoxypyridin-4-yl)-2,3-dihydro-1H-inden-4-yl)carbamoyl)-1H-pyrazole-3-sulfonamide] are at most 500 nM and at most 500 nM.
The matching figures for `N#Cc1cc(-c2ccc3c(c2NC(=O)NS(=O)(=O)c2ccn(C4CC4)n2)CCC3)ccn1` [Example 222, N-((5-(2-Cyanopyridin-4-yl)-2,3-dihydro-1H-inden-4-yl)carbamoyl)-1-cyclopropyl-1H-pyrazole-3-sulfonamide, sodium salt]: at most 500 nM and at most 500 nM.
The corresponding values for `[2H]C([2H])([2H])Oc1cc(-c2ccc3c(c2NC(=O)NS(=O)(=O)c2ccn(C4CCC4)n2)CCC3)ccn1` [Example 290, 1-Cyclobutyl-N-((5-(2-(methoxy-d3)pyridin-4-yl)-2,3-dihydro-1H-inden-4-yl)carbamoyl)-1H-pyrazole-3-sulfonamide, sodium salt] are at most 500 nM and at most 500 nM.
Take `Cc1cc(C)nc(S(=O)(=O)NC(=O)Nc2c(-c3ccncc3)cc(F)c3c2CCC3)n1` [Example 117, N-((7-Fluoro-5-(pyridin-4-yl)-2,3-dihydro-1H-inden-4-yl)carbamoyl)-4,6-dimethylpyrimidine-2-sulfonamide]: the figures for the 50% inhibitory concentration (IC50) on NLRP3 [1] and at NLRP3 [2] were at most 500 nM and at most 1000 nM, respectively.
The corresponding values for `COc1cc(-c2ccc3c(c2NC(=O)NS(=O)(=O)c2ccnc(CN(C)C)c2)CCC3)ccn1` [Example 177, 2-((Dimethylamino)methyl)-N-((5-(2-methoxypyridin-4-yl)-2,3-dihydro-1H-inden-4-yl)carbamoyl)pyridine-4-sulfonamide, sodium salt] are at most 500 nM and at most 1000 nM.
The matching figures for `COc1cc(-c2ccc3c(c2NC(=O)NS(=O)(=O)c2ccn(C4CCC4)n2)CCO3)ccn1` [Example 257, 1-Cyclobutyl-N-((5-(2-methoxypyridin-4-yl)-2,3-dihydrobenzofuran-4-yl)carbamoyl)-1H-pyrazole-3-sulfonamide, sodium salt]: at most 500 nM and at most 500 nM.
Regarding `COc1cc(-c2cc(F)c3c(c2NC(=O)NS(=O)(=O)N(C)CC2CCCN2C)CCC3)ccn1` (centres unmarked) [Example 125, 3-(N-Methyl-N-((1-methylpyrrolidin-2-yl)methyl)sulfamoyl)-1-(7-fluoro-5-(2-methoxypyridin-4-yl)-2,3-dihydro-1H-inden-4-yl)urea], the IC50 on NLRP3 [1] and at NLRP3 [2] was at most 500 nM throughout.
On to `CNCc1cc(S(=O)(=O)NC(=O)Nc2c(-c3ccnc(OC)c3)ccc3c2CCC3)nn1C1CC1` [Example 190, 1-Cyclopropyl-N-((5-(2-methoxypyridin-4-yl)-2,3-dihydro-1H-inden-4-yl)carbamoyl)-5-((methylamino)methyl)-1H-pyrazole-3-sulfonamide, sodium salt], for which the half-maximal inhibitory concentration (IC50) at NLRP3 [1] and at NLRP3 [2] was at most 500 nM throughout.
As for `COc1cc(-c2ccc3c(c2NC(=O)NS(=O)(=O)c2ccn(C4CCOC4)n2)CCC3)ccn1` (centres unmarked) [Example 187, N-((5-(2-Methoxypyridin-4-yl)-2,3-dihydro-1H-inden-4-yl)carbamoyl)-1-(tetrahydrofuran-3-yl)-1H-pyrazole-3-sulfonamide], the half-inhibitory concentration (IC50) on NLRP3 [1] and at NLRP3 [2] was at most 500 nM throughout.
For the compound `COc1cc(-c2ccc3c(c2NC(=O)NS(=O)(=O)c2ccc(CN(C)C)nc2)CCC3)ccn1` [Example 176, 6-((Dimethylamino)methyl)-N-((5-(2-methoxypyridin-4-yl)-2,3-dihydro-1H-inden-4-yl)carbamoyl)pyridine-3-sulfonamide], the 50% inhibitory concentration (IC50) on NLRP3 [1] and on NLRP3 [2] was at most 500 nM each time.
Turning to `N#Cc1cc(-c2ccc3c(c2NC(=O)NS(=O)(=O)c2ccn(C4CCC4)n2)CCC3)ccn1` [Example 227, N-((5-(2-Cyanopyridin-4-yl)-2,3-dihydro-1H-inden-4-yl)carbamoyl)-1-cyclobutyl-1H-pyrazole-3-sulfonamide], the half-inhibitory concentration (IC50) at NLRP3 [1] and on NLRP3 [2] was at most 500 nM throughout.
Take `O=C(Nc1c(-c2ccncc2)cc(F)c2c1CCC2)NS(=O)(=O)CCc1ccccc1` [Example 138, N-((7-Fluoro-5-(pyridin-4-yl)-2,3-dihydro-1H-inden-4-yl)carbamoyl)-2-phenylethanesulfonamide]: the half-maximal inhibitory concentration (IC50) on NLRP3 [1] is at most 1000 nM; at NLRP3 [2], at most 10000 nM.
The corresponding values for `COc1cc(-c2ccc3c(c2NC(=O)NS(=O)(=O)c2ccc(C(=O)N(C)C)cc2)CCC3)ccn1` [Example 308, 4-(N-((5-(2Mmethoxypyridin-4-yl)-2,3-dihydro-1H-inden-4-yl)carbamoyl)sulfamoyl)-N,N-dimethylbenzamide, sodium salt] are at most 500 nM and at most 1000 nM.
For the compound `CN(C)CC(C)(C)n1ccc(S(=O)(=O)NC(=O)Nc2c(-c3ccnc(C#N)c3)ccc3c2CCC3)n1` [Example 202, N-((5-(2-Cyanopyridin-4-yl)-2,3-dihydro-1H-inden-4-yl)carbamoyl)-1-(1-(dimethylamino)-2-methylpropan-2-yl)-1H-pyrazole-3-sulfonamide], the IC50 on NLRP3 [1] and at NLRP3 [2] was at most 500 nM in each case.
Take `CC(C)n1ccc(S(=O)(=O)NC(=O)Nc2c(-c3cccnc3)ccc3c2CCCC3)n1` [Example 179, 1-Isopropyl-N-((2-(pyridin-3-yl)-5,6,7,8-tetrahydronaphthalen-1-yl)carbamoyl)-1H-pyrazole-3-sulfonamide]: the half-maximal inhibitory concentration (IC50) at NLRP3 [1] and on NLRP3 [2] was at most 5000 nM each time.
Turning to `COc1cc(-c2ccc3c(c2NC(=O)NS(=O)(=O)c2ccn(C(C)(C)C#N)n2)CCC3)ccn1` [Example 201, 1-(2-Cyanopropan-2-yl)-N-((5-(2-methoxypyridin-4-yl)-2,3-dihydro-1H-inden-4-yl)carbamoyl)-1H-pyrazole-3-sulfonamide, sodium salt], the concentration for half-maximal inhibition (IC50) at NLRP3 [1] and on NLRP3 [2] was at most 500 nM in each case.
Turning to `COc1cc(-c2ccc3c(c2NC(=O)NS(=O)(=O)c2ccn(C4(CN5CCC5)CCC4)n2)CCC3)ccn1` [Example 312, 1-(1-(Azetidin-1-ylmethyl)cyclobutyl)-N-((5-(2-methoxypyridin-4-yl)-2,3-dihydro-1H-inden-4-yl)carbamoyl)-1H-pyrazole-3-sulfonamide], the IC50 at NLRP3 [1] and at NLRP3 [2] was at most 500 nM throughout.
On to `CC(C)n1ccc(S(=O)(=O)NC(=O)Nc2c(-c3ccnc(OC4CCCOC4)c3)ccc3c2CCC3)n1` (centres unmarked) [Example 288, 1-Isopropyl-N-((5-(2-((tetrahydro-2H-pyran-3-yl)oxy)pyridin-4-yl)-2,3-dihydro-1H-inden-4-yl)carbamoyl)-1H-pyrazole-3-sulfonamide, sodium salt], for which the IC50 was at most 500 nM at NLRP3 [1] and at most 5000 nM on NLRP3 [2].
The matching figures for `CC(C)n1ccc(S(=O)(=O)NC(=O)Nc2c(-c3ccnc(OC(F)F)c3)ccc3c2CCC3)n1` [Example 237, N-((5-(2-(Difluoromethoxy)pyridin-4-yl)-2,3-dihydro-1H-inden-4-yl)carbamoyl)-1-isopropyl-1H-pyrazole-3-sulfonamide, sodium salt]: at most 500 nM and at most 1000 nM.
